Two molecules from paper PMC6591251, “Discovery of potent necroptosis inhibitors targeting RIPK1 kinase activity for the treatment of inflammatory disorder and cancer metastasis” (Cell Death & Disease, 2019) can be followed below.

In assay [1] the test system is L929 cells. In words: TNF-induced necroptosis, cell viability by ATP levels. In kind it is cell-based. The conditions noted are these: Mus musculus, L929, 24 h. As for the experimental part: Necroptosis is tightly regulated by RIP kinases including RIPK1 and RIPK3. To develop new necroptosis inhibitors, we screened a small-molecule library of around 240 potential kinase inhibitors that were designed with novel structures to affect the ATP-binding pocket of protein kinases. Human colon cancer HT-29 cells were treated with these compounds for […], followed by treatment with necroptotic stimuli (TNFα, Smac mimetic, and z-VAD) that are known to activate TNF-mediated necroptosis. After 48 h, cell viability was analyzed by monitoring ATP levels.
Fig. 1 PK6 efficiently blocks TNF-α induced necroptosis in both human and mouse cells. a HT-29 cells cultured in 96-well plates were pretreated with the indicated compounds (10 μM) from a library consisting of ~240 compounds that we designed with novel structures for 1 h and subsequently treated with 40 ng/ml TNF-α (T), 100 nM Smac mimetic (S), and the caspase inhibitor 20 μM z-VAD(Z) for 48 h. Cell viability was assessed by measuring ATP levels. Data are represented as the mean ± standard deviation of duplicates. b Chemical structure of PK6. c Dose response curve and EC50 ± SD value for PK6 in TNF-α induced necroptosis in HT-29 cells. Cells were pretreated with indicated concentrations of PK6 for 1 h prior to the treatment with T (40 ng/ml), S (100 nM), and Z (20 μM) for 48 h. Cell viability was assessed by measuring ATP levels. d U937 cells were pretreated with indicated concentrations of PK6 for 1 h followed by the treatment with T (40 ng/ml), S (100 nM), and Z (20 μM) for 24 h. e MEF cells were pretreated with indicated concentrations of PK6 for 1 h followed by the treatment with T (40 ng/ml), S (100 nM), and Z (20 μM) for 24 h. f L929 cells were pretreated with indicated concentrations of PK6 for 1 h prior to the treatment with S (100 nM) and Z (20 μM) for 24 h.
Fig. 2 Chemical optimization of PK6 leads to improvements in anti-necroptotic activity. a, b The effects of the indicated compounds on cell viability were examined in HT-29 cells (a) and L929 cells (b). HT-29 cells were treated as indicate for 48 h and L929 cells for 24 h. Cell viability was assessed by measuring ATP levels. Data are represented as the mean ± standard deviation of triplicates. c Structure and EC50 ± SD value of each compound are shown in the table. EC50 values are the average of at least two independent determinations. d Lead optimization of PK6 TEXT PRINTED IN THE PICTURE: (c) PK6: EC50(nM) HT-29: 1200±53; EC50(nM) L929: 760±26 | (c) PK67: EC50(nM) HT-29: 250±6.3; EC50(nM) L929: 130±6.8 | (c) PK81: EC50(nM) HT-29: 120±7.6; EC50(nM) L929: 20±0.98 | (c) PK84: EC50(nM) HT-29: 97±6.7; EC50(nM) L929: 45±2.1 | (c) PK93: EC50(nM) HT-29: 130±36; EC50(nM) L929: 30±7.4 | (c) PK86: EC50(nM) HT-29: 73±3.9; EC50(nM) L929: 15±1.0 | (c) PK68: EC50(nM) HT-29: 23±1.4; EC50(nM) L929: 13±0.85
The cell viability was analyzed by using the CellTiter-Glo Luminescent Cell Viability Assay kit following the manufacturer’s instructions (Promega). Luminescence was measured with SpectraMax i3x (Molecular Devices).

Assay [2] relates to TNF-induced systemic inflammatory response syndrome. In words: TNF-induced SIRS mouse model. In kind it is in vivo, C57BL/6 mice. The conditions noted are these: for protection against TNFα-induced lethal shock: PK6 30 mg/kg, PK68 1 mg/kg ip, 15 min before TNF-α 6 μg per mouse. As for the experimental part: Necroptosis is involved in a variety of inflammatory disorders such as TNF-induced SIRS[11],[12]. We therefore evaluated the therapeutic effect of PK68 in a mouse model of TNF-induced SIRS. C57BL/6 mice were treated with vehicle, PK6, or PK68 for 15 min prior to intravenous injection of mouse TNFα (6 µg TNFα per mouse). […] SIRS is associated with systemic release of proinflammatory cytokines and tissue injuries. […] Moreover, TNF-induced damage of the colon was attenuated by the treatment of PK68 (Fig. 7d).
Fig. 7 PK68 ameliorates TNF-induced systemic inflammatory response syndrome. C57BL/6 mice (n = 11) were injected with vehicle, PK6 (30 mg/kg), or PK68 (1 mg/kg) via intraperitoneal injection for 15 min, followed by the tail intravenous injection of mouse TNF-α (6 μg per mouse). a, b The survival rate (a) and body temperature loss (b) were monitored. c, d C57BL/6 mice (n = 5) were injected with vehicle or PK68 (1 mg/kg) for 15 min prior to the injection of mouse TNF-α. The mice were sacrificed 4 h after TNF-α administration, the serum concentration of IL-1β was measured by ELISA kits (c), and histology of the colon tissue was analyzed by H&E staining and the representative images are shown (d). The serum or colon tissue from C57BL/6 mice was used as the control (Normal). Magnification: ×100 (left) and ×200 (right). Data represent mean value ± standard deviation. *P < 0.05. **P < 0.01. ***P < 0.001
PK6 and PK68 were diluted into sterile PBS. C57BL/6 mice were pretreated with vehicle, PK6 (30 mg/kg), or PK68 (1 mg/kg) via intraperitoneal injection for around 15 min and then challenged with mouse TNF-α (6 μg per mouse) via tail intravenous injection. Mice mortality was continuously monitored till 72 h after TNF-α administration. The serum and colon tissue are collected at 4 h post TNF-α challenge.

Read-outs that look alike come from different tables or passages of the source.

Usually EC50 stands for the concentration needed to bring the measured effect to its halfway point.

With `CC(=O)Nc1nc2ccc(-c3cnc(Cl)c(NC(=O)Cc4ccccc4)c3)cc2s1` [PK6, N-(5-(2-acetamidobenzo[d]thiazol-6-yl)-2-chloropyridin-3-yl)-2-phenylacetamide], in assay [1] (S 100 nM and Z 20 μM, read-out: EC50, TNF-induced necroptosis), the half-maximal effective concentration (EC50) is approximately 760 nM. For the same molecule, the “protection against TNFα-induced lethal shock” value in assay [2] is on record as “effective protection”.

Take `CC(=O)Nc1nc2ccc(-c3cnc(C)c(NC(=O)OC4CCCCC4)c3)cc2s1` [PK68, cyclohexyl (5-(2-acetamidobenzo[d]thiazol-6-yl)-2-methylpyridin-3-yl)carbamate]: the half-maximal effective concentration (EC50) in assay [1] (read-out: EC50(nM) L929) is 13 nM. Moreover, in assay [2] (1 mg/kg ip), the TNFα-induced temperature loss result was “strongly reduced”. For the same molecule, the “TNF-induced damage of the colon” value in assay [2] (1 mg/kg, 4 h after TNF-α) was “attenuated”. The “production of proinflammatory cytokines including IL-1β” value in assay [2] (1 mg/kg, serum 4 h after TNF-α) is “significantly ameliorated”. In assay [2], the “protection against TNFα-induced lethal shock” value is “effective protection”.
